Source: PubChem BioAssay (NCI)
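48-hour exposure; five concentrations; linearly interpolated endpoints. At the TGI there is no net growth.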

Tests used:
Assay in all cases: NCI anticancer screen, dose series, 48 h
[1] = tested on: KM12 colon
[2] = tested on: NCI-H226 lung
[3] = tested on: NCI-H522 lung
[4] = tested on: CCRF-CEM leukemia
[5] = tested on: M19-MEL melanoma
[6] = tested on: EKVX NSCLC
[7] = tested on: RXF-631 renal
[8] = tested on: SN12C renal
[9] = tested on: SF-295 CNS
[10] = tested on: UACC-62 melanoma
[11] = tested on: HCT-116 colon
[12] = tested on: OVCAR-4 ovarian
[13] = tested on: NCI-H23 lung
[14] = tested on: COLO 205 colon
[15] = tested on: DMS 273 small cell lung
[16] = tested on: LOX IMVI melanoma
[17] = tested on: UACC-257 melanoma
[18] = tested on: SK-OV-3 ovarian
[19] = tested on: KM20L2 colon
[20] = tested on: SNB-19 CNS
[21] = tested on: OVCAR-5 ovarian
[22] = tested on: 786-0 renal
[23] = tested on: RPMI-8226 leukemia
[24] = tested on: NCI-H460 lung
[25] = tested on: DMS 114 small cell lung
[26] = tested on: LXFL 529 NSCLC
[27] = tested on: ACHN renal
[28] = tested on: SW-620 colon
[29] = tested on: HCT-15 colon
[30] = tested on: RXF 393 renal
[31] = tested on: SF-268 CNS
[32] = tested on: SF-539 CNS
[33] = tested on: K-562 leukemia
[34] = tested on: SK-MEL-28 melanoma
[35] = tested on: SK-MEL-2 melanoma
[36] = tested on: U251 CNS
[37] = tested on: TK-10 renal
[38] = tested on: OVCAR-3 ovarian
[39] = tested on: OVCAR-8 ovarian
[40] = tested on: DLD-1 colon
[41] = tested on: A498 renal
[42] = tested on: MOLT-4 leukemia
[43] = tested on: CAKI-1 renal
[44] = tested on: MALME-3M melanoma
[45] = tested on: UO-31 renal
[46] = tested on: A549 NSCLC
[47] = tested on: M14 melanoma
[48] = tested on: SK-MEL-5 melanoma
[49] = tested on: SNB-78 CNS
[50] = tested on: SNB-75 CNS
[51] = tested on: HCC-2998 colon
[52] = tested on: HT29 colon
[53] = tested on: HOP-62 NSCLC
[54] = tested on: IGROV1 ovarian
[55] = tested on: XF 498 CNS
[56] = tested on: HOP-92 NSCLC
[57] = tested on: T-47D breast
[58] = tested on: HOP-18 NSCLC
[59] = tested on: PC-3 prostate
[60] = tested on: BT-549 breast
[61] = tested on: SR leukemia
[62] = tested on: MDA-MB-231 breast
[63] = tested on: MDA-N
[64] = tested on: HS 578T breast
[65] = tested on: MDA-MB-435
[66] = tested on: DU-145 prostate
[67] = tested on: HL-60(TB) leukemia
[68] = tested on: NCI/ADR-RES ovarian

`CCCN(CCCCC(NC(C)=O)C(=O)NCc1ccccc1)C(=O)NC` (stereo not drawn) gave a TGI [1] of over 100 µM, a TGI [2] of over 100 µM and a TGI [3] of over 100 µM. The TGI [4] was over 100 µM, the TGI [5] was over 100 µM and the TGI [6] was over 100 µM. The TGI [7] was over 100 µM, the TGI [8] was over 100 µM and the TGI [9] was over 100 µM. It also gave a TGI [10] of over 100 µM, a TGI [11] of over 100 µM and a TGI [12] of over 100 µM. The TGI [13] was over 100 µM, the TGI [14] was over 100 µM and the TGI [15] was over 100 µM. The TGI [16] was over 100 µM, the TGI [17] was over 100 µM and the TGI [18] was over 100 µM. It also gave a TGI [19] of over 100 µM, a TGI [20] of over 100 µM and a TGI [21] of over 100 µM. The TGI [22] was over 100 µM, the TGI [23] was over 100 µM and the TGI [24] was over 100 µM. The TGI [25] was over 100 µM, the TGI [26] was over 100 µM and the TGI [27] was over 100 µM. For the same compound, the TGI [28] was over 100 µM, the TGI [29] was over 100 µM and the TGI [30] was over 100 µM. The TGI [31] was over 100 µM, the TGI [32] was over 100 µM and the TGI [33] was over 100 µM. For the same compound, the TGI [34] was over 100 µM, the TGI [35] was over 100 µM and the TGI [36] was over 100 µM. For the same compound, the TGI [37] was over 100 µM, the TGI [38] was over 100 µM and the TGI [39] was over 100 µM. The TGI [40] was over 100 µM, the TGI [41] was over 100 µM and the TGI [42] was over 100 µM. It also gave a TGI [43] of over 100 µM, a TGI [44] of over 100 µM and a TGI [45] of over 100 µM. For the same compound, the TGI [46] was over 100 µM, the TGI [47] was over 100 µM and the TGI [48] was over 100 µM. It also gave a TGI [49] of over 100 µM, a TGI [50] of over 100 µM and a TGI [51] of over 100 µM. The TGI [52] was over 100 µM, the TGI [53] was over 100 µM and the TGI [54] was over 100 µM. The TGI [55] was over 100 µM and the TGI [56] was over 100 µM.
Compound `CC[C@@]1(OC(=O)CCC(=O)O)C(=O)OCc2c1cc1n(c2=O)Cc2cc3ccccc3nc2-1` has a TGI [1] of 3.2 µM, a TGI [57] of 2.62 µM and a TGI [2] of 3.13 µM. It also gave a TGI [3] of 3.72 µM, a TGI [58] of over 100 µM and a TGI [4] of 0.127 µM. For the same compound, the TGI [5] was 1.69 µM, the TGI [6] was over 100 µM and the TGI [7] was 17.6 µM. The TGI [8] was 4.22 µM, the TGI [9] was 1.78 µM and the TGI [59] was over 100 µM. It also gave a TGI [10] of 0.255 µM, a TGI [12] of 13.3 µM and a TGI [13] of 0.838 µM. For the same compound, the TGI [60] was over 28.3 µM, the TGI [14] was 8.49 µM and the TGI [15] was 0.676 µM. For the same compound, the TGI [16] was 0.596 µM, the TGI [17] was 2.09 µM and the TGI [61] was 0.03 µM. For the same compound, the TGI [62] was over 27.6 µM, the TGI [18] was 14.2 µM and the TGI [19] was 33.8 µM. The TGI [20] was over 43 µM, the TGI [21] was 11.9 µM and the TGI [22] was 0.394 µM. For the same compound, the TGI [23] was 3.87 µM, the TGI [63] was 5.51 µM and the TGI [24] was 0.592 µM. The TGI [25] was 1.08 µM, the TGI [26] was over 45.4 µM and the TGI [27] was 0.424 µM. It also gave a TGI [64] of over 100 µM, a TGI [28] of 16.8 µM and a TGI [29] of 11.7 µM. The TGI [30] was 1.53 µM, the TGI [31] was over 60.9 µM and the TGI [32] was 0.238 µM. For the same compound, the TGI [33] was over 61.8 µM, the TGI [65] was 3.22 µM and the TGI [34] was over 46.1 µM. The TGI [35] was 4.96 µM, the TGI [36] was 2.18 µM and the TGI [37] was 57.5 µM. For the same compound, the TGI [38] was 3.88 µM, the TGI [39] was 9.38 µM and the TGI [40] was over 100 µM. It also gave a TGI [66] of 1.51 µM, a TGI [41] of 1.27 µM and a TGI [42] of 0.163 µM. For the same compound, the TGI [43] was 0.612 µM, the TGI [44] was 6.78 µM and the TGI [45] was 0.493 µM. For the same compound, the TGI [46] was 5.54 µM, the TGI [67] was 0.449 µM and the TGI [47] was 1.41 µM. It also gave a TGI [48] of 0.373 µM, a TGI [49] of over 100 µM and a TGI [50] of 2.54 µM. For the same compound, the TGI [51] was 4.29 µM, the TGI [52] was over 33.6 µM and the TGI [53] was 0.181 µM. For the same compound, the TGI [54] was 5.98 µM, the TGI [55] was 5.38 µM and the TGI [68] was 0.791 µM. It also gave a TGI [56] of 6.08 µM.
